The values that follow come from patent publication US7947830B2, “Substituted propenyl piperazine derivatives as novel inhibitors of histone deacetylase” (Janssen Pharmaceutica N.V., priority 2004, dated 2011).

For orientation: solubility means how much of the substance goes into solution per volume. A high value points to much dissolved substance. By melting point is commonly meant the temperature of the solid-liquid transition.

Like-named read-outs stand apart in the source and are kept apart here.

For data set [1], the target named is histone deacetylase (HeLa nuclear extracts). The data set is described as follows: In vitro assay for inhibition of histone deacetylase (HDAC Fluorescent Activity Assay, Fluor de Lys). Type of data set: biochemical. Conditions: Fluor de Lys substrate. From the text:
The in vitro assay for inhibition of histone deacetylase (see example C.1) measures the inhibition of HDAC enzymatic activity obtained with the compounds of formula (I).
The HDAC Fluorescent Activity Assay/Drug Discovery Kit of Biomol (cat.No: AK-500-0001) was used. The HDAC Fluorescent Activity Assay is based on the Fluor de Lys (Fluorogenic […] deAcetylase Lysyl) substrate and developer combination. The Fluor de Lys substrate, comprises an acetylated lysine side chain. Deacetylation of the substrate sensitizes the substrate so that, in the second step, treatment with the Fluor de Lys developer produces a fluorophore.
After 30 min, 1 volume of the developer was added. […] For each experiment, controls (containing HeLa nuclear extract and buffer), a blank incubation (containing buffer but no HeLa nuclear extract) and samples (containing compound dissolved in DMSO and further diluted in buffer and HeLa nuclear extract) were run in parallel. […] All sample were tested 4 times. In each test the blank value was substracted from both the control and the sample values. The control sample represented 100% of substrate deactylation. For each sample the fluorescence was expressed as a percentage of the mean value of the controls. […] Herein the effects of test compounds are expressed as pIC50 (the negative log value of the IC50-value) (see Table F-3).

The nature of data set [2]: Kinetic solubility in aqueous media (nephelometer, C.3.a). Type of data set: physicochemical. As to conditions: aqueous buffer, kinetic from dmso stock; score; phosphate citrate buffer pH 7.4, turbidity. As to the method:
The solubility of a compound measures the ability of a compound to stay in solution. In a first method the ability of a compound to stay in aqueous solution upon dilution (see example C.3.a) is measured. DMSO-stock solutions are diluted with a single aqueous buffer solvent in 3 consecutive steps. For every dilution turbidity is measured with a nephelometer.
In the first dilution step, 10 μl of a concentrated stock-solution of the active compound, solubilized in DMSO (5 mM), was added to 100 μl phosphate citrate buffer pH 7.4 and mixed. In the second dilution step, an aliquot (20 μl) of the first dilution step was further dispensed in 100 μl phosphate citrate buffer pH 7.4 and mixed. Finally, in the third dilution step, a sample (20 μl) of the second dilution step was further diluted in 100 μl phosphate citrate buffer pH 7.4 and mixed. All dilutions were performed in 96-well plates. Immediately after the last dilution step the turbidity of the three consecutive dilution steps were measured with a nephelometer. Dilution was done in triplicate for each compound to exclude occasional errors. Based on the turbidity measurements a ranking is performed into 3 classes. Compounds with high solubility obtained a score of 3 and for this compounds the first dilution is clear. Compounds with medium solubility obtained a score of 2. For these compounds the first dilution is unclear and the second dilution is clear.

The subject of data set [3] is A2780 ovarian carcinoma cells. Put plainly: Antiproliferative activity on A2780 cells (MTT). Type of data set: cell-based, human. As to conditions: Homo sapiens, A2780, 96 h, four days of incubation, read-out: Cellular activity pIC50 C.2. (converted). On the procedure:
Cellular activity of the compounds of formula (I) was determined on A2780 tumour cells using a […] assay for cell toxicity or survival (Mosmann Tim, Journal of Immunological Methods 65: 55-63, 1983)(see example C.2).
All compounds tested were dissolved in DMSO and further dilutions were made in culture medium. Final DMSO concentrations never exceeded 0.1% (v/v) in cell proliferation assays. Controls contained A2780 cells and DMSO without compound and blanks contained DMSO but no cells. MTT was dissolved at 5 mg/ml in PBS. A glycine buffer comprised of 0.1 M glycine and 0.1 M NaCl buffered to pH 10.5 with NaOH (1 N) was prepared (all reagents were from Merck).
The human A2780 ovarian carcinoma cells (a kind gift from Dr. T. C. Hamilton [Fox Chase Cancer Centre, Pennsylvania, USA]) were cultured in RPMI 1640 medium supplemented with 2 mM L-glutamine, 50 μg/ml gentamicin and 10% fetal calf serum.
Cells were routinely kept as monolayer cultures at 37° C. in a humidified 5% CO2 atmosphere. Cells were passaged once a week using a trypsin/EDTA solution at a split ratio of 1:40. All media and supplements were obtained from Life Technologies. Cells were free of mycoplasma contamination as determined using the Gen-Probe Mycoplasma Tissue Culture kit (supplier: BioMérieux).
Cells were seeded in NUNC™ 96-well culture plates (Supplier: Life Technologies) and allowed to adhere to the plastic overnight. Densities used for plating were 1500 cells per well in a total volume of 200 μl medium. After cell adhesion to the plates, medium was changed and drugs and/or solvents were added to a final volume of 200 μl. Following four days of incubation, medium was replaced by 200 μl fresh medium and cell density and viability was assessed using an MTT-based assay. To each well, 25 μl […] solution was added and the cells were further incubated for 2 hours at 37° C. The medium was then carefully aspirated and the blue MTT-formazan product was solubilized by addition of 25 μl glycine buffer followed by 100 μl of DMSO. […] Within an experiment, the results for each experimental condition are the mean of 3 replicate wells. For initial screening purposes, compounds were tested at a single fixed concentration of 10^−6 M. For active compounds, the experiments were repeated to establish full concentration-response curves. For each experiment, controls (containing no drug) and a blank incubation (containing no cells or drugs) were run in parallel. The blank value was subtracted from all control and sample values. For each sample, the mean value for cell growth (in absorbance units) was expressed as a percentage of the mean value for cell growth of the control. […] Herein the effects of test compounds are expressed as pIC50 (the negative log value of the IC50-value)(see Table F-3).

Data set [4] can be described thus: Metabolic stability with rat hepatocytes cell culture (C.5.b). Type of data set: in vitro ADME. Conditions: 5 μM. From the text: Metabolism of drugs means that a lipid-soluble xenobiotic or endobiotic compound is enzymatically transformed into (a) polar, water-soluble, and excretable metabolite(s). The major organ for drug metabolism is the liver. […] However, some metabolites may have enhanced activity or toxic effects. Thus drug metabolism may include both “detoxication” and “toxication” processes. One of the major enzyme systems that determine the organism's capability of dealing with drugs and chemicals is represented by the cytochrome P450 monooxygenases, which are NADPH dependent enzymes. Metabolic stability of compounds can be determined in vitro with the use of subcellular human tissue (see example C.5.a.). Here metabolic stability of the compounds is expressed as % of drug metabolised after 15 minutes incubation of these compounds with microsomes. Quantitation of the compounds was determined by LC-MS analysis. Metabolic stability of compounds can also be determined by calculating the half live of compounds in rat hepatocyte cells (see example C.5.b.). […]
Samples were prepared for LC-MS by addition of two volumes of DMSO. […] Of the resulting supernatant 50 μl was analysed by LC-MS. […]
Total injection volume of samples was 50 μL. […] The mass spectrometer was operated in positive ion mode in SIM adjusted to the mass of M+H with a scan width of 1 Da for quantification purposes. […]

Data set [5] relates to p21 promoter reporter A2780 tumour in nude mice. The data set is described as follows: p21 promoter induction in vivo method, tumour fluorescence (C.6.c). As to conditions: oral administration, daily during 6 days, 20-40 mpk. As to the method: Another method tests the capacity of compounds to induce p21 as the consequence of HDAC inhibition at the cellular level. […] The reporter gene is a fluorescent protein and the expression of the reporter gene is measured as the amount of fluorescent light emitted (see example C.6.b.). The last method is an in vivo method wherein mice are used for screening the pharmaceutical activity of a compound. The above described stably transformed tumour cells can be administered to mice in an amount sufficient to effect production of a tumour. After the tumour cells had sufficient time to form a tumour, a potentially active compound can be administered to the animals and the effect of said compound on the tumour cells is evaluated by measuring the expression of the reporter gene. Incubation with pharmaceutical active compounds will result in an increase of reporter gene expression compared to the control levels (see example C.6.c.)
A selected clone was injected subcutaneous (10^7 cells/200 μl) into the flank of nude mice and a calliper measurable tumour was obtained after 12 days. […] Tumours were evaluated for fluorescence by the in-house developed Automated Whole Body Imaging System (Fluorescent stereomicroscope type Olympus® SZX12 equipped with a GFP filter and coupled to a CCD camera type JAI® CV-M90 controlled by a software package based on the IMAQ Vision Software from National Instruments®). […]

Assay in data set [6]: not given
The source holds these as a separate data set.

`COc1ccc(/C=C/C(CO)N2CCN(c3ncc(C(=O)NO)cn3)CC2)cc1` (stereo not drawn) [Compound 3]: the “Enzymatic activity pIC50 C.1.” value in data set [1] is 8.1. This molecule also came in with a solubility in data set [2] greater than 455 µM. In data set [3], the IC50 was 0.0316 µM.

For the molecule `O=C(NO)c1cnc(N2CCN(C(/C=C/c3ccccc3)C(=O)NC3CC3)CC2)nc1` (stereo not drawn) [Compound 15], the “Enzymatic activity pIC50 C.1.” value in data set [1] came out at 7.6. This molecule showed a solubility in data set [2] greater than 455 µM. Further, in data set [3], the IC50 is 0.1 µM.

`O=C(NO)c1cnc(N2CCN(C(/C=C/c3ccc(Cl)cc3)CO)CC2)nc1` (stereo not drawn) [Compound 4] yielded an in vitro half-live in data set [4] of 23 min. For the same molecule, the “Enzymatic activity pIC50 C.1.” value in data set [1] stood at 8.2. In addition, the solubility in data set [2] is greater than 455 µM. Further, the IC50 in data set [3] is 0.0316 µM.

Take `COc1cc(N)c(Cl)cc1C(=O)NC1CCN(CCCOc2ccc(F)cc2)CC1OC` (stereo not drawn) [Cisapride]: for the setting “human, 15 min, 5 μM”, the “% metabolism” value was 45%.

As for `O=C(NO)c1cnc(N2CCN(C(/C=C/c3ccc(C(F)(F)F)cc3)CO)CC2)nc1` (stereo not drawn) [Compound 6], the “Enzymatic activity pIC50 C.1.” value in data set [1] is reported as 7.6. In addition, the solubility in data set [2] is greater than 455 µM. Further, in data set [3], the IC50 was 0.0398 µM.

On to `CCCO` [propanol], for which the “% metabolism” value (after 15 min incubation with active microsomes, compound 5 μM) was found to be 25%.

Regarding `O=C(NO)c1cnc(N2CCN(C(/C=C/c3ccccc3)CO)CC2)nc1` (stereo not drawn) [Compound 1], the “tumour fluorescence ranked relative to R306465” value in data set [5] is given as “better than R306465”. Also, in data set [6], the melting point was 187 °C. The “Enzymatic activity pIC50 C.1.” value in data set [1] amounted to 8.2. In data set [2], this molecule registered a solubility greater than 455 µM. In data set [3], the IC50 was 0.0126 µM.

In the case of `O=C(NO)c1cnc(N2CCN(S(=O)(=O)c3ccc4ccccc4c3)CC2)nc1` [Compound R306465, reference compound], the in vitro half-live in data set [4] is listed as 8 min.

With `O=C(NO)c1cnc(N2CCN(C(/C=C/c3ccc(Cl)cc3)CN3CCOCC3)CC2)nc1` (stereo not drawn) [Compound 2], in data set [1], the “Enzymatic activity pIC50 C.1.” value turned out to be 7.4. For the same molecule, the solubility in data set [2] was greater than 455 µM. Further, the IC50 in data set [3] is 0.316 µM.

For `O=C(NO)c1cnc(N2CCN(C(/C=C/c3ccc(-c4ccccc4)cc3)CO)CC2)nc1` (stereo not drawn) [Compound 5], in data set [1], the “Enzymatic activity pIC50 C.1.” value was 7.9. The solubility in data set [2] is less than 76 µM. Moreover, the IC50 in data set [3] was 0.0398 µM.
